Reference: patent US20140171431A1, “AZOLE HETEROCYCLIC COMPOUND, PREPARATION METHOD, PHARMACEUTICAL COMPOSITION AND USE” (priority 2011, published 2014)
Where two headings read alike, the source gives them in different places.

Legend:
[1] = target: T1, Lp-PLA2 in rabbit serum (Oryctolagus cuniculus, UniProt G1SE06); test: In vitro inhibitory activity towards the enzyme Lp-PLA2 in rabbit serum, [3H]PAF substrate; format: biochemical; conditions: 100 nM
T1 construct: from tissue; host or cells: rabbit serum
T1 sequence (G1SE06 22-423): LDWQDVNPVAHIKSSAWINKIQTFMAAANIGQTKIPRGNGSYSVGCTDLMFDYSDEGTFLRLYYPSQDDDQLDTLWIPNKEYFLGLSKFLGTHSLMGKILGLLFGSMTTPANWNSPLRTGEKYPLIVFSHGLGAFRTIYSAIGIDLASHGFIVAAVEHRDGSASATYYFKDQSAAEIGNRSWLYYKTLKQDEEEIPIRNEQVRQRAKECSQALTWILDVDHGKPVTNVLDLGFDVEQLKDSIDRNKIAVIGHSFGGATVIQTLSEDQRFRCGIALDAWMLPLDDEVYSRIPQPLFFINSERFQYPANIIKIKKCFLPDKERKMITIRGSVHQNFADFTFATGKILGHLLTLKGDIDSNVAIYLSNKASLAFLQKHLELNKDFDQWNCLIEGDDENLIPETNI

[2] = target: T2, Lp-PLA2 in human serum (Homo sapiens, UniProt Q13093); test: In vitro inhibitory activity towards the enzyme Lp-PLA2 in human serum, [3H]PAF substrate; format: biochemical; conditions: for inhibition at 0.01 µM: 10 nM; for inhibition at 0.1 µM: 100 nM
T2 construct: from tissue
T2 sequence (Q13093 22-441): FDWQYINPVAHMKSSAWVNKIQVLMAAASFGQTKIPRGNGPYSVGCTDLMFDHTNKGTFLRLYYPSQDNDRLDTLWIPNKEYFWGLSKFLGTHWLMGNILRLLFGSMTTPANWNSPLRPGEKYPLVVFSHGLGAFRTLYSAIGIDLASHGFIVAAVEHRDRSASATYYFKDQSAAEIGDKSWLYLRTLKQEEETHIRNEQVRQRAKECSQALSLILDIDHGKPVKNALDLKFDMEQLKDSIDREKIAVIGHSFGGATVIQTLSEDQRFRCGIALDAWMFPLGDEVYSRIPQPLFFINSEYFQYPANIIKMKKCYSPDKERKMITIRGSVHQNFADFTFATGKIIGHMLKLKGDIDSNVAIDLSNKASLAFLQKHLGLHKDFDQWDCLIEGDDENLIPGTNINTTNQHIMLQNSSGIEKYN
Experimental: The activities of compounds were measured using [^3H] labeled platelet activating factor ([^3H]PAF, Perkinelmer, Lot NET910) as the substrate. The reaction was carried out in a system containing 50 mmol/l HEPES and 150 mmol/l NaCl (pH 7.4) in a total volume of 200 μl. First, 10 μL human plasma and 10 μl DMSO solution of the test compound were added to the system and preincubated for 10 min at 37° C. Then 20 nM [^3H]PAF was added as listed in table 1 to start the reaction and incubated for a further 10 min at 37° C. After that, 600 μl of CHCl3/MeOH (2:1) was added and the resulting mixture was mixed with vortex. After settled for a while, the mixture was centrifugated at 12000×g for 15 min. The supernatant was transferred to a new tube and 200 μl of CHCl3 was added and mixed by vortexing. The mixture was settled or centrifugated for 2 min. A 100 μl portion of the supernatant was then collected for radioactivity intensity measurement.

[3] = rabbit serum, read-out: inhibition, %
[4] = human serum, read-out: inhibition, %
[5] = read-out: inhibitory rate towards the rabbit serum derived Lp-PLA2 enzyme
[6] = read-out: inhibitory rate towards the human serum derived Lp-PLA2 enzyme

Compound | inhibition at 0.1 µM [1, 3] [%] | inhibition at 0.01 µM [2, 4] [%] | inhibition at 0.1 µM ([2]; human serum) [%] | inhibition at 0.1 µM [1, 5] [%] | inhibition at 0.01 µM [2, 6] [%]
CCN(CC)Cc1nnc(Cn2c(SCc3ccc(F)cc3)nc(=O)c3c2CCC3)n1Cc1ccc(-c2ccc(C(F)(F)F)cc2)cc1 [Example 79, 1-((5-((diethylamino)methyl)-4-((4′-(trifluoromethyl)biphenyl-4-yl)methyl)-4H-1,2,4-triazol-3-yl)methyl)-2-(4-fluorobenzylthio)-6,7-dihydro-1H-cyclopenta[d]pyrimidin-4(5H)-one] | 85.3 | 68 | 93 |  | 
CN(Cc1ccc(F)cc1)Cc1nnc(Cn2c(SCc3ccc(F)cc3)nc(=O)c3c2CCC3)n1Cc1ccc(-c2ccc(C(F)(F)F)cc2)cc1 [Example 81, 1-((5-(((4-fluorobenzyl)(methyl)amino)methyl)-4-((4′-(trifluoromethyl)biphenyl-4-yl)methyl)-4H-1,2,4-triazol-3-yl)methyl)-2-(4-fluorobenzylthio)-6,7-dihydro-1H-cyclopenta[d]pyrimidin-4(5H)-one] | 90 | 93 | 98 | > 90 | > 80
CC(C)N(C)Cc1nnc(Cn2c(SCc3ccc(F)cc3)nc(=O)c3c2CCC3)n1Cc1ccc(-c2ccc(C(F)(F)F)cc2)cc1 [Example 82, 2-(4-fluorobenzylthio)-1-((5-((isopropyl(methyl)amino)methyl)-4-((4′-(trifluoromethyl)biphenyl-4-yl)methyl)-4H-1,2,4-triazol-3-yl)methyl)-6,7-dihydro-1H-cyclopenta[d]pyrimidin-4(5H)-one] | 85 | 77 | 98 |  | 
C[C@@H]1CN(Cc2nnc(Cn3c(SCc4ccc(F)cc4)nc(=O)c4c3CCC4)n2Cc2ccc(-c3ccc(C(F)(F)F)cc3)cc2)C[C@H](C)O1 [Example 84, 1-((5-(((2S,6R)-2,6-dimethylmorpholino)methyl)-4-((4′-(trifluoromethyl)biphenyl-4-yl)methyl)-4H-1,2,4-triazol-3-yl)methyl)-2-(4-fluorobenzylthio)-6,7-dihydro-1H-cyclopenta[d]pyrimidin-4(5H)-one] | 76 | 69 | 91 |  | 
COC(=O)C(C)(C)NCc1nnc(Cn2c(SCc3ccc(F)cc3)nc(=O)c3c2CCC3)n1Cc1ccc(-c2ccc(C(F)(F)F)cc2)cc1 [Example 85, methyl-2-((5-((2-(4-fluorobenzylthio)-4-oxo-4,5,6,7-tetrahydro-1H-cyclopenta[d]pyrimidin-1-yl)methyl)-4-((4′-(trifluoromethyl)biphenyl-4-yl)methyl)-4H-1,2,4-triazol-3-yl)methylamino)-2-methylpropanoate] | 77 | 59 | 91 |  | 
CCN1CCN(Cc2nnc(Cn3c(SCc4ccc(F)cc4)nc(=O)c4c3CCC4)n2Cc2ccc(-c3ccc(C(F)(F)F)cc3)cc2)CC1 [Example 86, 1-((5-((4-ethylpiperazin-1-yl)methyl)-4-((4′-(trifluoromethyl)biphenyl-4-yl)methyl)-4H-1,2,4-triazol-3-yl)methyl)-2-(4-fluorobenzylthio)-6,7-dihydro-1H-cyclopenta[d]pyrimidin-4(5H)-one] | 90 | 82 | 96 | > 90 | > 80
COC(=O)C(C)(C)N1CCN(Cc2nnc(Cn3c(SCc4ccc(F)cc4)nc(=O)c4c3CCC4)n2Cc2ccc(-c3ccc(C(F)(F)F)cc3)cc2)CC1 [Example 88, methyl-2-(4-((5-((2-(4-fluorobenzylthio)-4-oxo-4,5,6,7-tetrahydro-1H-cyclopenta[d]pyrimidin-1-yl)methyl)-4-((4′-(trifluoromethyl)biphenyl-4-yl)methyl)-4H-1,2,4-triazol-3-yl)methyl)piperazin-1-yl)-2-methylpropanoate] | 67 | 59 | 91 |  | 
CN(Cc1nnc(Cn2c(SCc3ccc(F)cc3)nc(=O)c3c2CCC3)n1Cc1ccc(-c2ccc(C(F)(F)F)cc2)cc1)C1CC1 [Example 101, 1-((5-((cyclopropyl(methyl)amino)methyl)-4-((4′-(trifluoromethyl)biphenyl-4-yl)methyl)-4H-1,2,4-triazol-3-yl)methyl)-2-(4-fluorobenzylthio)-6,7-dihydro-1H-cyclopenta[d]pyrimidin-4(5H)-one] | 86 | 77 | 96 |  | 
O=C1NCCN1CCNCc1nnc(Cn2c(SCc3ccc(F)cc3)nc(=O)c3c2CCC3)n1Cc1ccc(-c2ccc(C(F)(F)F)cc2)cc1 [Example 102, 2-(4-fluorobenzylthio)-1-((5-((2-(2-oxoimidazolidin-1-yl)ethylamino)methyl)-4-((4′-(trifluoromethyl)biphenyl-4-yl)methyl)-4H-1,2,4-triazol-3-yl)methyl)-6,7-dihydro-1H-cyclopenta[d]pyrimidin-4(5H)-one] | 97 | 77 |  |  | 
CN(C)C1CCN(Cc2nnc(Cn3c(SCc4ccc(F)cc4)nc(=O)c4c3CCC4)n2Cc2ccc(-c3ccc(C(F)(F)F)cc3)cc2)CC1 [Example 103, 1-((5-((4-(dimethylamino)piperidin-1-yl)methyl)-4-((4′-(trifluoromethyl)biphenyl-4-yl)methyl)-4H-1,2,4-triazol-3-yl)methyl)-2-(4-fluorobenzylthio)-6,7-dihydro-1-cyclopenta[d]pyrimidin-4(5H)-one] | 82 | 71 | 98 |  | 
O=c1nc(SCc2ccc(F)cc2)n(Cc2nnc(CN3CCC(F)(F)C3)n2Cc2ccc(-c3ccc(C(F)(F)F)cc3)cc2)c2c1CCC2 [Example 104, 1-((5-((3,3-difluoropyrrolidin-1-yl)methyl)-4-((4′-(trifluoromethyl)biphenyl-4-yl)methyl)-4H-1,2,4-triazol-3-yl)methyl)-2-(4-fluorobenzylthio)-6,7-dihydro-1H-cyclopenta[d]pyrimidin-4(5H)-one] | 67 | 53 | 86 |  | 
CN(C)CCNCc1nnc(Cn2c(SCc3ccc(F)cc3)nc(=O)c3c2CCC3)n1Cc1ccc(-c2ccc(C(F)(F)F)cc2)cc1 [Example 105, 1-((5-((2-(dimethylamino)ethylamino)methyl)-4-((4′-(trifluoromethyl)biphenyl-4-yl)methyl)-4H-1,2,4-triazol-3-yl)methyl)-2-(4-fluorobenzylthio)-6,7-dihydro-1H-cyclopenta[d]pyrimidin-4(5H)-one] | 98 | 72 |  |  | 
CCN1CCC[C@H]1CNCc1nnc(Cn2c(SCc3ccc(F)cc3)nc(=O)c3c2CCC3)n1Cc1ccc(-c2ccc(C(F)(F)F)cc2)cc1 [Example 106, (S)-1-((5-(((1-ethylpyrrolidin-2-yl)methylamino)methyl)-4-((4′-(trifluoromethyl)biphenyl-4-yl)methyl)-4H-1,2,4-triazol-3-yl)methyl)-2-(4-fluorobenzylthio)-6,7-dihydro-1H-cyclopenta[d]pyrimidin-4(5H)-one] | 96 | 80 |  | > 90 | > 80
CN1CCN(Cc2nnc(Cn3c(SCc4ccc(F)cc4)nc(=O)c4c3CCC4)n2Cc2ccc(-c3ccc(C(F)(F)F)cc3)cc2)CC1 [Example 107, 2-(4-fluorobenzylthio)-1-((5-((4-methylpiperazin-1-yl)methyl)-4-((4′-(trifluoromethyl)biphenyl-4-yl)methyl)-4H-1,2,4-triazol-3-yl)methyl)-6,7-dihydro-1H-cyclopenta[d]pyrimidin-4(5H)-one] | 68 | 70 | 91 |  | 
